Reference: US20150080305A1, “APPLICATION OF INITIAL DOSES OF LHRH ANALOGUES AND MAINTENANCE DOSES OF LHRH ANTAGONISTS FOR THE TREATMENT OF HORMONE-DEPENDENT CANCERS AND CORRESPONDING PHARMACEUTICAL KITS” (AETERNA ZENTARIS GmbH, priority 2006, published 2015)
Square brackets hold non-standard residues; d marks the D form. Peptide text beside a SMILES is read from it. dPhe(4-Cl) = N[C@H](Cc1ccc(Cl)cc1)C(=O)O; d2Nal = N[C@H](Cc1ccc2ccccc2c1)C(=O)O; dCit = NC(=O)NCCC[C@@H](N)C(=O)O; d3Pal = N[C@H](Cc1cccnc1)C(=O)O

Assays:
hormone concentration = conditions: volunteer tests; cited from earlier work
testosterone levels = test: Testosterone levels in prostate cancer patients under initial/maintenance dose regimen; type: in vivo, human; conditions: for testosterone levels during first period: prostate cancer patients
Protocol: (§1) 130 mg ozarelix is given as a single monthly initial dose per i.m. injection every 4 weeks to patients suffering from prostate cancer for a first period of 3 months. […] Subsequently, patients are treated with single monthly maintenance doses of 30 mg ozarelix given per i.m. injection over a period of 6 months. […] The treatment scheme is then repeated continuously (chronic treatment).
(§2) 00 mg ozarelix is given as a single initial dose per i.m. injection once every 3 months to patients suffering from prostate cancer for a first period of 3 to 6 months. […] Subsequently, patients are treated with single monthly maintenance doses of 40 mg ozarelix given per i.m. injection over a period of 6 months. […] The treatment scheme is then repeated continuously (chronic treatment).
as §1, with “3.75” for “130”, “leuprorelin (leuprolide) are” for “ozarelix is”, “6” for “3”, “20” for “30”, “9” for “6”
as §2, with “11.25” for “00”, “leuprorelin (leuprolide) are” for “ozarelix is”, “three” for “3”, “3” for “3 to 6”, “50” for “40”, “3” for “6”

PSA levels = PSA levels in prostate cancer patients under initial/maintenance dose regimen; type: in vivo, human; conditions: for PSA levels decrease during first period: prostate cancer patients
Protocol: as §1, §2
as §1, with “3.75” for “130”, “leuprorelin (leuprolide) are” for “ozarelix is”, “6” for “3”, “20” for “30”, “9” for “6”
as §2, with “11.25” for “00”, “leuprorelin (leuprolide) are” for “ozarelix is”, “three” for “3”, “3” for “3 to 6”, “50” for “40”, “3” for “6”

[1] = Example 3: 3.75 mg single monthly initial dose i.m. every 4 weeks, first period of 6 months
[2] = Example 4: 11.25 mg single initial dose i.m. once every three months, first period of 3 months
[3] = Example 1: 130 mg single monthly initial dose i.m. every 4 weeks, first period of 3 months
[4] = Example 1: single monthly maintenance doses of 30 mg i.m. over 6 months, after 130 mg ozarelix initial doses
[5] = Example 2: 00 mg single initial dose i.m. once every 3 months, first period of 3 to 6 months
[6] = Example 2: single monthly maintenance doses of 40 mg i.m. over 6 months, after ozarelix initial doses
[7] = Example 3: single monthly maintenance doses of 20 mg i.m. over 9 months, after 3.75 mg leuprorelin initial doses
[8] = Example 4: single monthly maintenance doses of 50 mg i.m. over 3 months, after 11.25 mg leuprorelin initial dose

In the case of `CC(=O)N[C@H](Cc1ccc2ccccc2c1)C(=O)N[C@H](Cc1ccc(Cl)cc1)C(=O)N[C@H](Cc1cccnc1)C(=O)N[C@@H](CO)C(=O)N[C@@H](Cc1ccc(O)cc1)C(=O)N[C@H](CCCNC(N)=O)C(=O)N[C@@H](CC(C)C)C(=O)N[C@@H](CCCNC(=N)N)C(=O)N1CCC[C@H]1C(=O)N[C@H](C)C(N)=O` [cetrorelix] (Ac-[d2Nal][dPhe(4-Cl)][d3Pal]SY[dCit]LRP[dA]-NH2), the “dose necessary for complete suppression of the hormone concentration to castration level” value (hormone concentration) is given as 10 mg daily.
In the case of `CCNC(=O)[C@@H]1CCCN1C(=O)[C@H](CCCNC(=N)N)NC(=O)[C@H](CC(C)C)NC(=O)[C@@H](CC(C)C)NC(=O)[C@H](Cc1ccc(O)cc1)NC(=O)[C@H](CO)NC(=O)[C@H](Cc1c[nH]c2ccccc12)NC(=O)[C@H](Cc1c[nH]cn1)NC(=O)[C@@H]1CCC(=O)N1` [leuprorelin, reference compound], the “testosterone levels during first period” value (testosterone levels; [1]) is reported as “quickly reach castration level”, the “testosterone levels during first period” value (testosterone levels; [2]) is reported as “quickly reach castration level” and the “PSA levels decrease during first period” value (PSA levels; [1]) is reported as “up to 95%”. The “PSA levels decrease during first period” value (PSA levels; [2]) was “up to 95%”.
With ozarelix the “testosterone levels during first period” value (testosterone levels; [3]) was “quickly reach castration level”, the “testosterone levels during second period” value (testosterone levels; [4]) was “above 0.5 ng/mL” and the “testosterone levels during first period” value (testosterone levels; [5]) was “quickly reach castration level”. The “testosterone levels during second period” value (testosterone levels; [6]) was “above 0.5 ng/mL”, the “testosterone levels during second period” value (testosterone levels; [7]) was “above 0.5 ng/mL” and the “testosterone levels during second period” value (testosterone levels; [8]) was “above 0.5 ng/mL”. For the same compound, the “PSA levels decrease during first period” value (PSA levels; [3]) was “up to 95%”, the “PSA levels during second period” value (PSA levels; [4]) was “remain stably low” and the “PSA levels decrease during first period” value (PSA levels; [5]) was “up to 95%”. The “PSA levels during second period” value (PSA levels; [6]) was “remain stably low”, the “PSA levels during second period” value (PSA levels; [7]) was “remain stably low” and the “PSA levels during second period” value (PSA levels; [8]) was “remain stably low”.
